The values that follow come from ChEMBL document CHEMBL1123720 (J Med Chem, 1987).

One may read the IC50 as the midpoint of a concentration-inhibition curve.

Bounds are passed on as bounds.

The species entered for one assay is Rattus norvegicus. As to the kind of experiment: Dose-dependent inhibition of calcium contraction in depolarized rat aortic strips. The format is functional, organism-based. The conditions noted are these: Aorta.
For the molecule `CCOC(=O)C1=C(C)N=C(C)/C(=C(/O)OCC)C1c1cccc([N+](=O)[O-])c1SC` (configuration not stated), the IC50 worked out at 5.8 nM.

Consider `CCOC(=O)C1=C(C)N=C(C)/C(=C(/O)OCC)C1c1cc([N+](=O)[O-])ccc1SC` (configuration not stated), for which the IC50 turned out to be 130 nM.

Take `CCOC(=O)[C@H]1[C@H]2/C(=C(\O)OCC)C(C)=N[C@]1(C)Sc1c2cccc1[N+](=O)[O-]`: the IC50 came out at 23000 nM. For `CCOC(=O)[C@H]1[C@H]2/C(=C(\O)OCC)C(C)=N[C@]1(C)Sc1ccc([N+](=O)[O-])cc12`, the IC50 is 3400 nM.

Take `CCOC(=O)[C@H]1[C@H]2/C(=C(\O)OCC)C(C)=N[C@]1(C)Sc1ccccc12`: the IC50 is 22000 nM. Turning to `CCOC(=O)[C@@H]1[C@H]2/C(=C(\O)OCC)C(C)=N[C@]1(C)Sc1cc([N+](=O)[O-])ccc12`, the IC50 was determined as 14000 nM. With `CCOC(=O)[C@@H]1[C@H]2/C(=C(\O)OCC)C(C)=N[C@]1(C)Sc1c2cccc1[N+](=O)[O-]`, the IC50 was determined as 3700 nM. In the case of `CCOC(=O)[C@@H]1[C@H]2/C(=C(\O)OCC)C(C)=N[C@]1(C)Sc1ccc([N+](=O)[O-])cc12`, the IC50 stood at 31 nM.

`CCOC(=O)[C@@H]1[C@H]2/C(=C(\O)OCC)C(C)=N[C@]1(C)Sc1ccccc12`: the IC50 was found to be 1200 nM. Turning to `COC(=O)C1=C(C)NC(C)=C(C(=O)OC)C1c1ccccc1[N+](=O)[O-]` [NIFEDIPINE], the IC50 is 8.8 nM. With `CCOC(=O)C1=C(C)NC(C)=C(C(=O)OC)C1c1cccc([N+](=O)[O-])c1` (configuration not stated) [NITRENDIPINE], the IC50 came to 3.1 nM.

The species named for another assay is Rattus norvegicus. The experiment in a line: Dose-dependent inhibition of calcium contraction in depolarized rat aortic strips. The format is functional, organism-based. The conditions noted are these: Aorta.
On to `CCOC(=O)[C@H]1[C@H]2/C(=C(\O)OCC)C(C)=N[C@]1(C)Sc1cc([N+](=O)[O-])ccc12`, for which the IC50 was above 100000 nM.
